Test [1] has as its system peripheral nerve injury sheep model. Briefly: Mechanical hyperalgesia (pin-prick test) after intrathecal morphine in the peripheral nerve injury sheep model. The format is in vivo. As to the method: Adult female merino sheep weighing 40-60 kg were used to produce the peripheral nerve injury sheep model. All experimental procedures were approved by the Institutional of Animal Care and Use Committee at the University of Texas Medical Branch and were in accordance with the guidelines of National Institutes of Health and of the International Association for the study of Pain (IASP).
Sheep were fasted for 24 hours prior to surgery. General anesthesia was given followed by 600 mg IM injection of ketamine. An intravenous line was placed in the external jugular and the sheep received an additional 200 mg of ketamine IV and a prophylactic dose of cefazolin 1 g IV. After intubation, the sheep were maintained on 2% isoflurane in oxygen and mechanically ventilated. The sheep received IV fluids (0.9% Normal Saline). Body temperature was maintained with a circulating water pad. Oxygen saturation was monitored and maintained between 98-100%. Heart rate and blood pressure remained within normal limits and required no adjustments. Sheep was positioned prone with hind limbs positioned cephalad beside the abdomen. A positioning pillow was placed under the chest, raising the head and chest and allowing a lordotic curve of the lumbar spine. The sheep was loosely secured to the operating table. The lumbrosacral area was sterilely prepped with betadine and draped. A vertical midline incision was made over the L-6 to S-2 vertebrae. The spinous processes of L6 and S1 were partially resected to allow greater exposure of the dura. A purse string of 7-O nylon was placed in the dura, the dura carefully lifted and nicked. A RACZ epidural catheter (16 Ga×36) catheter with snaplock catheter/syringe adapter was placed into the subarachnoid space and advanced until the 10 cm mark was at the opening of the dura. Once CSF flow through the catheter was confirmed, the dura was pulled close to the catheter with the purse string and the catheter was secured to the muscle fascia. The dura, muscle fascia, and skin were closed. The catheter was looped and secured subcutaneously. The catheter was then tunneled and secured to the skin of the sheep with suture. The sheep was allowed 5 days to recover and was tested for neurologic deficits. Animals with neurologic deficits were sacrificed.
(§1) After the placement of an intrathecal catheter and the documentation of a lack of any neurological deficits, common peroneal nerve injury surgery was performed. As described previously, the sheep was premedicated with intramuscular ketamine, intubated and mechanically ventilated. The sheep was positioned laterally and the hind leg was sterilely prepared and draped. A vertical incision was made mid-thigh. The semimembranous and semitendinous muscle bellies were separated to expose the common peroneal nerve and tibial nerve. The common peroneal nerve was ligated with 2-0 silk suture and cut distally. A 1-cm segment was removed from the distal stump to prevent re-growth. Fascia and skin were closed.
With the sheep in the stanchion, a pin-prick test was performed using a 300 gram von-frey filament. […] The duration of hindlimb withdrawal was recorded^14.
Three weeks after peroneal nerve injury, the analgesic effect of morphine was measured. […]
Baseline withdrawal thresholds to mechanical stimulation were measured prior to morphine administration and at ten-minute intervals post-morphine. The anti-nociceptive effect of morphine time course was determined by measuring the pin-prick frequency every 10-min after intrathecal administration. […]

Test [2] has the same test system. As to the kind of experiment: Mechanical allodynia (hindlimb withdrawal threshold, von Frey filaments) after intrathecal morphine in the peripheral nerve injury sheep model. The format is in vivo. The settings on record: intrathecal morphine sulfate 50 to 1200 micrograms, three weeks after peripheral nerve injury. As to the method:
as §1, with “closed. […]” for “closed.”
Based on the response to the first von-frey stimuli presented the following stimulus was increased if a negative or null response or decreased if there was a positive response. The 50% response threshold was calculated using the formula: 50% g threshold=(10^[x^f^+κδ]/10,000. The 50% withdrawal thresholds to von-frey filaments were used to assess the behavior change. To avoid inter-observer variability, one investigator did the majority of behavioral experiments. Additionally, each sheep did only one behavioral test per day.
Baseline withdrawal thresholds to mechanical stimulation were measured prior to morphine administration and at ten-minute intervals post-morphine. […]

[3] abbreviates: 200 micrograms intrathecal, measured by pin prick.
[4] abbreviates: intrathecal 2 to 1200 micrograms, three weeks after peroneal nerve injury, 30 minutes after drug delivery.

“Also recorded” adds a separate entry of the source.

With `CN1CC[C@]23c4c5ccc(O)c4O[C@H]2[C@@H](O)C=C[C@H]3[C@H]1C5` [morphine], in test [1] (setting [3]), the duration of analgesia is over 120 min and the “time of peak analgesia” value is 30 min. In addition, in test [1] (setting [4]), the “reduction in efficacy, ipsilateral compared to contralateral dose response curve” value is listed as “approximately 4 fold” and the “reduction in potency, ipsilateral compared to contralateral dose response curve” value was “approximately 2 fold”. Further, the “analgesic effect after nerve injury / injured versus contralateral hindlimb (in words)” value in test [1] (intrathecal, ipsilateral (nerve injured) vs contralateral (non-injured) hindlimb) is given as “significantly reduced; also recorded: much less analgesia; also recorded: more potency on the contralateral”. In test [2], the “hindlimb withdrawal threshold, reversal (contralateral hindlimb)” value was “completely reversed” and the “increase of hindlimb withdrawal threshold on the ipsilateral hindlimb” value came to 36%.

Values taken from US8212104B2, “Model of experimentally induced chronic pain and uses thereof” (The Board of Regents of the University of Texas System, priority 2008, dated 2012).
